Laboratory results from patent publication US20230080054A1 (ILDONG PHARMACEUTICAL CO., LTD., priority 2021, published 2023).

Target: T1, human ANO6 (Homo sapiens, UniProt Q4KMQ2)
T1 construct: expressed in transfected cells
T1 sequence (Q4KMQ2 1-931 isoform Q4KMQ2-2): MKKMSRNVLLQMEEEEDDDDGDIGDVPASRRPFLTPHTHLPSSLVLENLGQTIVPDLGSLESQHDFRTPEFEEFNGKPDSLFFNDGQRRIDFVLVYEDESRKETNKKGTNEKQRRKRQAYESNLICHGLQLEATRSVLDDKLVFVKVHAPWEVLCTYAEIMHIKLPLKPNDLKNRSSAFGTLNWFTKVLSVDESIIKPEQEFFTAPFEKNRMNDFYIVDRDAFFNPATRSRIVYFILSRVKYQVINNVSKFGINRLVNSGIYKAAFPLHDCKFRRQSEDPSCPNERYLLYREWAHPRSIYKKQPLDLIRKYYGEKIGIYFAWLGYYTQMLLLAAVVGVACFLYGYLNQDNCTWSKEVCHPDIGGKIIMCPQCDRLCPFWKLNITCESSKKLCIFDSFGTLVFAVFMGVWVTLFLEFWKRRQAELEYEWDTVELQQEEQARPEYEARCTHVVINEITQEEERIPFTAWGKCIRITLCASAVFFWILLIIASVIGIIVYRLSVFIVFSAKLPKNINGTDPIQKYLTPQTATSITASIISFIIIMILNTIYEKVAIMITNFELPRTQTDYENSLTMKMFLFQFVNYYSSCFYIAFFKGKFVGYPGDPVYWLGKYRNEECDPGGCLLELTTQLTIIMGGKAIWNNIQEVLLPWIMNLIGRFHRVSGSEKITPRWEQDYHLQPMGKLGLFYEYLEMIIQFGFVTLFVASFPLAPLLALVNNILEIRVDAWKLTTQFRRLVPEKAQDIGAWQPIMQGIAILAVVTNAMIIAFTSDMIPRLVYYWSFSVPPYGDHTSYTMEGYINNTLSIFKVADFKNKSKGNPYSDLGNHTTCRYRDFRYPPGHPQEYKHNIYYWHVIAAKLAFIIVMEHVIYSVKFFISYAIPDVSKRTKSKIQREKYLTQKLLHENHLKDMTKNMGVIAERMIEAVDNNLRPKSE
Test: LACT C2 assay (phosphatidylserine scramblase function assay)
Format: cell-based
Conditions: FRT cells expressing human ANO6, 10 μM ionomycin; for inhibition at 0.1 µM: test compound 100 nM, read-out: Inhibition Level 100 nM; for inhibition at 1 µM: test compound 1 μM, read-out: Inhibition Level 1 μM
Excerpt: Phosphatidylserine Scramblase Function Assay
1. Materials and Instruments
Ionomycin (Alomonelab, cat. #I-700), DAPI (Sigma-Aldrich, cat. #D8417), paraformaldehyde (Biosesang, cat. #P2031), Lionheart FX Automated Microscope (BioTek, Winooski), Python3 (Python Software Foundation), and OpenCV (Open Source Computer Vision Library).
Fisher rat thyroid (FRT) cells stably expressing human ANO6 (GenBank accession no. NP_001191732.1, provided by J. H. Nam, Dongguk University College of Medicine, Korea) were grown in DMEM/Ham's F-12 (1:1) medium with 10% FBS, 2 mM L-549 glutamine, 100 units/mL penicillin, and 100 μg/mL streptomycin at 37° C. and 5% CO2.
FRT cells stably expressing human ANO6 were plated in 96 well black-walled microplates at a density of 2×10^4 cells/well. After 24 hours incubation, cells were treated with the test compound (dissolved in DMSO) were treated to each well to become 1% v/v DMSO for 10 minutes, then 10 μM of ionomycin was applied. Finally each well was washed with 200 μL PBS after 10 minutes. After washout, the phosphatidylserine and nuclei were stained with PBS containing 500 nM Lactadherin-C2 (Lact-C2)-GFP, then cells were washed with 200 μL PBS. Cells were fixed with 4% paraformaldehyde for 5 minutes at room temperature. For morphological analysis, some cells were stained with fluorescently labelled DAPI for 15 minutes at room temperature. Quantitative analysis of the fluorescence intensity of Lact-C2-GFP was performed with Python3 and OpenCV. OpenCV was used to remove background and noise pixels, and the sum of all remaining pixel values was used to evaluate the fluorescence intensity of Lact-C2-GFP.
The inhibitory activity (%) of each of the test compounds was obtained by the following steps. In each row of 96 well plate, the inhibitory activity of each of the test compounds was calculated as percentages. The inhibitory activity of a negative control group to which neither compounds nor ionomycin were treated was set to be 100%, and the inhibitory activity of a positive control group to which ionomycin was treated and compounds were not treated was set to be 0%. The assay was performed in triplicate, and the results were averaged.

| SMILES | inhibition at 0.1 µM [%] | inhibition at 1 µM [%] |
| --- | --- | --- |
| CN(c1cccc(C(=O)N[C@@H]2C[C@H]2c2ccccc2)c1)c1ncc(-c2cccc(F)c2)cn1 [Compound 180, 3-((5-(3-fluorophenyl)pyrimidin-2-yl)(methyl)amino)-N-((1R,2S)-2-phenylcyclopropyl)benzamide] | < 30 |  |
| Cc1ccc(NC(=O)c2cccc(Nc3ncc(-c4cccc(F)c4)cn3)c2)cc1C [Compound A92] | < 30 | ≥ 60 |
| O=C(N[C@@H]1C[C@H]1c1ccc(F)c(F)c1)c1cccc(Nc2ccc(-c3ccccc3)nn2)c1 [Compound 234, N-((1R,2S)-2-(3,4-difluorophenyl)cyclopropyl)-3-((6-phenylpyridazin-3-yl)amino)benzamide] | 30 to 60 | ≥ 60 |
| O=C(N[C@@H]1C[C@H]1c1ccccc1)c1ccnc(Nc2ncc(-c3ccccc3)cn2)c1 [Compound 178, N-((1R,2S)-2-phenylcyclopropyl)-2-((5-phenylpyrimidin-2-yl)amino)isonicotinamide] | 30 to 60 |  |
| Cc1ccc(CNC(=O)c2cccc(Nc3ncc(-c4cccc(F)c4)cn3)c2)cc1 [Compound A97] | < 30 | < 30 |
| O=C(O)c1ccc(CCNC(=O)c2cccc(Nc3ncc(-c4cccc(F)c4)cn3)c2)cc1 [Compound 130, 4-(2-(3-((5-(3-fluorophenyl)pyrimidin-2-yl)amino)benzamido)ethyl)benzoic acid] | < 30 | < 30 |
| O=C(Nc1ccc2c(c1)CNC2)c1cccc(Nc2ncc(-c3cccc(F)c3)cn2)c1 [Compound 192, 3-((5-(3-fluorophenyl)pyrimidin-2-yl)amino)-N-(isoindolin-5-yl)benzamide] | < 30 |  |
| Nc1ccccc1NC(=O)c1cccc(Nc2ccc(-c3cccc(F)c3)cn2)c1 [Compound 143, N-(2-aminophenyl)-3-((5-(3-fluorophenyl)pyridin-2-yl)amino)benzamide] | < 30 | 30 to 60 |
| Cc1ccccc1CNC(=O)c1cccc(Nc2ncc(-c3cccc(F)c3)cn2)c1 [Compound A99] | < 30 | < 30 |
| Cc1ccc(CCNC(=O)c2cccc(Nc3ncc(-c4ccccc4)cn3)c2)o1 [Compound 153, N-(2-(5-methylfuran-2-yl)ethyl)-3-((5-phenylpyrimidin-2-yl)amino)benzamide] | < 30 | < 30 |
| O=C(Nc1cccc([N+](=O)[O-])c1)c1cccc(Nc2ncc(-c3cccc(F)c3)cn2)c1 [Compound 137, 3-((5-(3-fluorophenyl)pyrimidin-2-yl)amino)-N-(3-nitrophenyl)benzamide] | < 30 | ≥ 60 |
| CN1CCC(CNC(=O)c2cccc(Nc3ccc(-c4cccc(F)c4)cn3)c2)CC1 [Compound 140, 3-((5-(3-fluorophenyl)pyridin-2-yl)amino)-N-((1-methylpiperidin-4-yl)methyl)benzamide] | < 30 | < 30 |
| O=C(NCc1ccc(Br)cc1)c1cccc(Nc2ncc(-c3cccc(F)c3)cn2)c1 [Compound A100] | < 30 | 30 to 60 |
| N#Cc1cccc(NC(=O)c2cccc(Nc3ncc(-c4cccc(F)c4)cn3)c2)c1 [Compound 136, N-(3-cyanophenyl)-3-((5-(3-fluorophenyl)pyrimidin-2-yl)amino)benzamide] | < 30 | ≥ 60 |
| O=C(NCc1ccc(Cl)cc1)c1cccc(Nc2ncc(-c3cccc(F)c3)cn2)c1 [Compound A101] | < 30 | 30 to 60 |
| COC(=O)c1ccccc1CCNC(=O)c1cccc(Nc2ncc(-c3cccc(F)c3)cn2)c1 [Compound 127, methyl 2-(2-(3-((5-(3-fluorophenyl)pyrimidin-2-yl)amino)benzamido)ethyl)benzoate] | < 30 | < 30 |
| O=C(O)c1cccc(CCNC(=O)c2cccc(Nc3ncc(-c4cccc(F)c4)cn3)c2)c1 [Compound 129, 3-(2-(3-((5-(3-fluorophenyl)pyrimidin-2-yl)amino)benzamido)ethyl)benzoic acid] | < 30 | < 30 |
| O=C(N[C@@H]1C[C@H]1c1ccccc1)c1cccc(Nc2ncc(-c3ccoc3)cn2)c1 [Compound 157, 3-((5-(furan-3-yl)pyrimidin-2-yl)amino)-N-((1R,2S)-2-phenylcyclopropyl)benzamide] | 30 to 60 | ≥ 60 |
| O=C(NC1(c2ccccc2)CC1)c1cccc(Nc2ncc(-c3cccc(F)c3)cn2)c1 [Compound 133, 3-((5-(3-fluorophenyl)pyrimidin-2-yl)amino)-N-(1-phenylcyclopropyl)benzamide] | < 30 | 30 to 60 |
| O=C(N[C@@H]1C[C@H]1c1ccccc1)c1cc(Nc2ncc(-c3ccccc3)cn2)ccn1 [Compound 167, N-((1R,2S)-2-phenylcyclopropyl)-4-((5-phenylpyrimidin-2-yl)amino)picolinamide] | < 30 |  |
| CC(NC(=O)c1cccc(Nc2ccc(-c3ccccc3)nn2)c1)c1ccc(F)cc1 (stereo not drawn) [Compound 233, N-(1-(4-fluorophenyl)ethyl)-3-((6-phenylpyridazin-3-yl)amino)benzamide] | < 30 | < 30 |
| Cc1c(C2CC2NC(=O)c2cccc(Nc3ncc(-c4cccc(F)c4)cn3)c2)cnn1C (stereo not drawn) [Compound 150, N-(2-(1,5-dimethyl-1H-pyrazol-4-yl)cyclopropyl)-3-((5-(3-fluorophenyl)pyrimidin-2-yl)amino)benzamide] | < 30 | < 30 |
| O=C(NCc1ccc(F)c(Br)c1)c1cccc(Nc2ccc(-c3ccccc3)nn2)c1 [Compound 201, N-(3-bromo-4-fluorobenzyl)-3-((6-phenylpyridazin-3-yl)amino)benzamide] | < 30 | 30 to 60 |
| O=C(N[C@@H]1C[C@H]1c1ccccc1)C12CCC(Nc3ccc(-c4ccccc4)nn3)(CC1)C2 [Compound 168, (1s,4s)-N-((1R,2S)-2-phenylcyclopropyl)-4-((6-phenylpyridazin-3-yl)amino)bicyclo[2.2.1]heptane-1-carboxamide] | < 30 |  |
| O=C(NC1(CO)CC1)c1cccc(Nc2ccc(-c3cccc(F)c3)nn2)c1 [Compound 224, 3-((6-(3-fluorophenyl)pyridazin-3-yl)amino)-N-(1-(hydroxymethyl)cyclopropyl)benzamide] | < 30 | < 30 |
| CCN1CCN(c2cc(CNC(=O)c3cccc(Nc4ccc(-c5ccccc5)nn4)c3)ccc2F)CC1 [Compound 226, N-(3-(4-ethylpiperazin-1-yl)-4-fluorobenzyl)-3-((6-phenylpyridazin-3-yl)amino)benzamide] | < 30 | < 30 |
| Cc1cc(F)ccc1CNC(=O)c1cccc(Nc2ccc(-c3ccccc3)nn2)c1 [Compound 210, N-(4-fluoro-2-methylbenzyl)-3-((6-phenylpyridazin-3-yl)amino)benzamide] | < 30 | ≥ 60 |
| Cc1ccc(NC(=O)c2cccc(Nc3ncc(-c4cccc(F)c4)cn3)c2)cc1 [Compound A102] | < 30 | ≥ 60 |
